Read-outs that look alike come from different tables or passages of the source.
Columns and labels:
CXCR2 [1] = target: T1, CXCR2 (Homo sapiens, UniProt P25025); assay: NanoBRET β-arrestin1 recruitment inhibition assay (NanoLux) in HEK293A cells; type: cell-based; conditions: for Imax βarr1 (maximum observed inhibitory effect): normalized to Imax of navarixin = 100%
T1 construct: expressed in transfected cells
T1 sequence (P25025 1-360): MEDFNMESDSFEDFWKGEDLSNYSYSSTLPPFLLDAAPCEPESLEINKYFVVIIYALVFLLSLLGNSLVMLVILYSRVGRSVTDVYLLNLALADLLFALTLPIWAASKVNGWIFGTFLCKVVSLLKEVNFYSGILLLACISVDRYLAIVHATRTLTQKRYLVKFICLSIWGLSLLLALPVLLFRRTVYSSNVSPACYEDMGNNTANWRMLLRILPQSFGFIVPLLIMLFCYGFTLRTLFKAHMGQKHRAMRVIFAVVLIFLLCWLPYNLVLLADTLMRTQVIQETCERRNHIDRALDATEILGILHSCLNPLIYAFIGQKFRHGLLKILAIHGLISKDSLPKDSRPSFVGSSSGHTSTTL
Experimental: Cells were trypsinized and resuspended at 3 × 10^5 cell/mL in the growth medium, whereafter they were incubated for 2 hours at RT. Cells were transfected in suspension using FuGENE® HD Transfection Reagent at a 3:1 reagent to DNA ratio in Opti-MEMTM I Reduced-Serum Medium, with the final DNA concentration of 1 μg/μL. The transfection mixture was incubated for 10 min at RT before adding it to the cell suspension. Transfected cells were seeded at 3.0 × 10^4 cells/well in a white, clear, flat-bottom 96-well plate coated with 100 μg/mL poly-D-lysin ([…], Sigma Aldrich) and incubated for 48 h at 37°C and 5% CO2. HEK293A cells were transiently co-transfected with plasmids encoding β-arrestin1 protein tagged with NLuc (donor) and CXCR2 protein tagged with mNeonGreen (mNG) acceptor in a 1:10 donor to acceptor ratio, as described previously ([Luís et al., 2022]). All subsequent steps are identical to those in “NanoBRET-based G protein activation inhibition assay,” which are described above. Measurements were acquired using a 440- to 480-nm donor emission filter (#0200-6179, Molecular Devices) and a 515- to 575-nm acceptor emission filter (#0200-6203, Molecular Devices) BRET ratios were extracted from ScreenWorks software (Molecular Devices) and represent the ratio between the acceptor emission of […]2 or mNG (G protein or β-arrestin recruitment, respectively) and NLuc donor emission. The basal BRET ratio was defined as the average BRET ratio of the five consecutive readings preceding ligand addition. Changes in BRET values post ligand administration (ΔBRET) were calculated for each well as a percentage difference to the previously defined basal BRET ratio. Average ΔBRET values were baseline corrected by subtracting the average negative control BRET ratio (unstimulated condition). […] AUCs were normalized to the positive control (stimulated condition); whereafter, dose-response curves were fitted to log (inhibitor) vs response (three parameters) in GraphPad 10.2.0 (GraphPad Software). […] Calculation 1: calculation of the BRET signal. • 1. […] NC correctedΔBRET=Δ[…]. • 4. a. Neg AUC of NC correctedΔBRET=Gα activation read out. b. Pos AUC of NC correctedΔBRET=β-arrestin recruitment.

CXCR2 [2] = target: T1, CXCR2; set-up: method as in Van Hoof et al., 2022; conditions: ref Van Hoof et al., 2022; cited from earlier work
[3] = CXCL1 at EC80, mean, n = 3, read-out: IC50 βarr1
[4] = CXCL2 at EC80, mean, n = 3, read-out: IC50 βarr1
[5] = CXCL3 at EC80, mean, n = 3, read-out: IC50 βarr1
[6] = CXCL5 at EC80, mean, n = 3, read-out: IC50 βarr1
[7] = CXCL6 at EC80, mean, n = 3, read-out: IC50 βarr1
[8] = CXCL7 at EC80, mean, n = 3, read-out: IC50 βarr1
[9] = CXCL8 at EC80, mean, n = 3, read-out: IC50 βarr1

| IC50 (CXCR2 [1]; [3]) [nM] | Imax βarr1 (maximum observed inhibitory effect) (CXCR2 [1]; CXCL1 at EC80, n = 3) [%] | IC50 (CXCR2 [1]; [4]) [nM] | Imax βarr1 (maximum observed inhibitory effect) (CXCR2 [1]; CXCL2 at EC80, n = 3) [%] | IC50 (CXCR2 [1]; [5]) [nM] | Imax βarr1 (maximum observed inhibitory effect) (CXCR2 [1]; CXCL3 at EC80, n = 3) [%] | IC50 (CXCR2 [1]; [6]) [nM] | Imax βarr1 (maximum observed inhibitory effect) (CXCR2 [1]; CXCL5 at EC80, n = 3) [%] | IC50 (CXCR2 [1]; [7]) [nM] | Imax βarr1 (maximum observed inhibitory effect) (CXCR2 [1]; CXCL6 at EC80, n = 3) [%] | IC50 (CXCR2 [1]; [8]) [nM] | Imax βarr1 (maximum observed inhibitory effect) (CXCR2 [1]; CXCL7 at EC80, n = 3) [%] | IC50 (CXCR2 [1]; [9]) [nM] | Imax βarr1 (maximum observed inhibitory effect) (CXCR2 [1]; CXCL8 at EC80, n = 3) [%] | IC50 (CXCR2 [1]; range across ELR+ chemokines, read-out: IC50 β-arrestin1 recruitment inhibition) [nM] | Structure (SMILES) | calcium mobilization antagonism (CXCR2 [2]) |
| --- | --- | --- | --- | --- | --- | --- | --- | --- | --- | --- | --- | --- | --- | --- | --- | --- |
| 1460 ± 580 | 98.15 ± 4.28 | 660 ± 210 | 92.98 ± 2.58 | 1530 ± 260 | 96.91 ± 2.10 | 1120 ± 260 | 100 | 790 ± 370 | 93.68 ± 7.03 | 340 ± 130 | 100 | 1510 ± 1010 | 100 | – | CC(CCO)Nc1nc(SCc2cccc(F)c2F)nc2[nH]nnc12 (stereo not drawn) [MVH-33] | – |
| 170 ± 60 | 100 | 80 ± 40 | 100 | 140 ± 50 | 99.42 ± 0.85 | 90 ± 30 | 100 | 70 ± 20 | 100 | 30 ± 10 | 100 | 150 ± 40 | 100 | 30 to 170 | CC(CO)Nc1nc(SCc2cccc(F)c2F)nc2oncc12 (stereo not drawn) [MVH-24] | most potent |
| 980 ± 180 | 100 | 580 ± 170 | 100 | 1590 ± 430 | 100 | 840 ± 160 | 100 | 700 ± 170 | 100 | 160 ± 50 | 95.75 ± 3.49 | 1340 ± 450 | 90.8 ± 4.62 | – | CC(CO)Nc1nc(SCc2cccc(F)c2F)nc2cnccc12 (stereo not drawn) [MVH-3] | potent |

From article PMC12301332, “Biased antagonism of a series of bicyclic CXCR2 intracellular allosteric modulators” (Frontiers in Pharmacology, 2025)
